Source: patent publication US9650405B2, “Modified sophorolipids as oil solubilizing agents” (Polytechnic Institute of New York University, priority 2010, dated 2017)
Values joined by “and” are separate entries in the source; they are usually repeats but may differ in a detail not shown here. Equal values may be shown once.

Assays:
[1] = Solubility of MSLs in water
Source text: If the material precipitates upon cooling or was to some extent insoluble, the insoluble material was separated by filtration, dried and weighed.

[2] = Emulsion droplet size distribution, Coulter LS 230 analyzer; format: physicochemical; conditions: paraffin oil-to-water 7:3 v/v, 25° C.
Description: Emulsified oil droplet size (average and standard deviation) was measured after suitable dilution of the emulsion phase using a Coulter LS 230 analyzer. […] Relative to natural and lactonic SL, selected MSLs show improved properties as emulsifiers on paraffin oil.
After being aged for 3-months, emulsified oil droplet size (average and standard deviation) was measured after suitable dilution of the emulsion phase using a Coulter LS 230 analyzer and the results are listed in Table 5. […] However, increasing the surfactant concentration from 1 to 2% did result in substantially smaller emulsion-phase droplet sizes. […] This is evidence that MSL's can stabilize oil phases greatly decreasing their tendency to undergo coalescence. […] It follows that the results of 3-month aging studies support the utility of selected MSLs for formation and stabilization of oil-in-water emulsions of paraffin oil phases. One skilled in the art would expect that the ability of these MSLs to stabilize paraffin oil phases teaches that they would also stabilize oil phases of similar structure.

[3] = Emulsion type: dilution test and oil soluble dye staining; format: physicochemical; conditions: 2%-by-weight relative to water phase, oil/water 5/5 and 7/3
Description: In this test the emulsion is diluted either with oil (O) or water (W). If the emulsion is O/W type and it is diluted with water, it will remain stable as water is the dispersion medium. However, if the emulsion is O/W type and it is diluted with oil, the emulsion will break as oil and water are not miscible with each other. […] Emulsions of the O/W type have separated layers after dilution with pure oil but form a homogenous phase when diluted by water. Unless otherwise specified, the emulsion type formed by MSLs were oil in water.
In FIG. 13B, the tube on the left was diluted with 1 mL of oil whereas the tube on right was diluted with water. Visual observation of the tubes in FIG. 13B supports that the emulsions formed are indeed O/W emulsions.
Oil Red O was applied as an oil soluble dye and emerald green as water soluble dye in the process of emulsion preparation. Observations of emulsions were made before and after staining under optical microscope at 400× magnification (FIG. 14). […] The formation of O/W emulsions and not W/O emulsions with this set of MSL compounds would not be obvious to one skilled in the art. We believe that O/W emulsions are formed by this set of MSLs due to that large sophorose polar head groups requires relatively more space than the lipid tails and, therefore self-assemble into spherical type structures where disaccharide groups are locating outside the droplets.

[4] = Emulsion viscosity measurement; format: physicochemical
Description: Viscosity was measured at 25° C. with increasing shear rate from 1 S^−1 to 750 S^−1. The viscosity change was monitored for aging times up to 3 months. For all samples, the paraffin oil/water ratio is 7/3 and the surfactant concentrations studied were 0.5%, 1% to 2%-by-weight relative to the oil phase. FIG. 19 presents the viscosity change with shear rate for different aging times. […] The emulsion tested was prepared using 2%-by-weight SL-butyl ester relative to paraffin oil. Viscosity decreases with increased shear rate implying the emulsion follows shear shinning. Furthermore, viscosity decreased with increased storage time. […] This change is consistent with the small increase in oil phase particle size (1.7 to 2.1 μm) with aging from 1 day to 3-months (Tables 4 and 5).
Values of ηlow decreased with storage time to various extents that are dependent on the MSL compound used to stabilize the emulsion. […] The relative ability of different MSL structures to stabilize emulsions and thereby decrease the extent of decrease in viscosity as a function of aging time would not be predictable by one skilled in the art. The behavior as a function of MSL structure is related to emulsion dispersed phase droplet size. That is, the smaller the change in droplet size, the less decrease in emulsion viscosity occurs with increased aging time. Smaller changes in droplet size reflects the ability of the emulsifier to better stabilize particles. For example, the viscosity of the emulsion stabilized by SL-butyl amide decreased by 65% (from 344 Pas to 120 Pas) whereas the viscosity of the emulsion stabilized by SL-hexyl ester decreased by 20% (from 457 Pas to […]).
The viscosity was measured 24 hours after emulsion preparation. The viscosity increased with increasing surfactant concentration. Such behavior could not have been predicted by one skilled in the art without the teaching provided in this disclosure. The extent of viscosity change with surfactant concentration is related to the interfacial free energy at the droplet surface that reduces with the increase of surfactant concentration.

[5] = SL-esters; from earlier publication in Colloids and surfaces, 2004, 240, 75; cited from earlier work
[6] = Emulsion stability based on phase separation; format: physicochemical; conditions: for emulsion layer volume-%, one month / emulsion layer volume-%, start: oil/water 5/5, 2%-by-weight; for emulsion layer volume-%, one month: one month at room temperature; for emulsion layer volume-%, start / emulsion layer, start: start of aging; for emulsion phase, one month / emulsion layer, start: oil/water 7/3, 2%-by-weight; for emulsion phase, one month: one month aging; for emulsion layer percentage: paraffin oil/water 5/5, 2%-by-weight emulsifier, after 24 hours at 25° C.
Description: The emulsion was obtained by homogenizing the oil and water mixture and was allowed to settle at room temperature for 24 hours. […] Then, this mixture was homogenized at 13,000 rpm for 2 minutes. Thereafter, the resulting emulsion was left unagitated at 25° C. for 24 hours. Surfactants which give a larger emulsion phase are denoted as having higher emulsion effectiveness (Process Safety and Environment protection, 2005, 83, 38-46). […] Thus, unexpectedly, that longer alkyl chains, at least up to butyl and hexyl, provided improved interfacial stability at the paraffin oil/water interface. […] Apparently, ester bonds of SL-esters are less disruptive to organization at the oil water interface than amide bonds of SL-amides. […] The acidic SL (3) gave an 8% emulsion layer, much lower than the MSL examples given herein. Similarly, the natural SL (1) mixture gave a 10% emulsion layer. This performance is also far below that of SL-butyl amide (24), hexyl amide (25), butyl ester (8) and hexyl ester (16).
After homogenized at 13,000 rpm for 2 minutes, the emulsions were kept at room temperature and separation of the respective oil, emulsion and water layers was recorded for up to 1 month.

[7] = oil/water 7/3, 2%-by-weight relative to paraffin oil, 25° C.
[8] = oil/water 7/3, 1% MSL, shear rate 1 S^−1

## CCCCOC(=O)CCCCCCCC=CCCCCCCC(C)OC1OC(CO)C(O)C(O)C1OC1OC(CO)C(O)C(O)C1O (stereo not drawn) [Compound 8, SL-Butyl Ester]
[1]
  Solubility: <3000 µg/mL
[2]; 0.5 weight %, 24 hours
  Average droplet size: 2.5 ± 0.3 μm
[2]; 0.5 weight %, aged 3-months
  Average droplet size: 3.5 ± 0.4 μm
[2]; 1 weight %, 24 hours
  Average droplet size: 2.4 ± 0.3 μm
[2]; 1 weight %, aged 3-months
  Average droplet size: 3.1 ± 0.5 μm
[2]; 2 weight %, 24 hours
  Average droplet size: 1.7 μm and 1.7 ± 0.1 μm
[2]; 2 weight %, aged 3-months
  Average droplet size: 2.1 μm and 2.1 ± 0.4 μm
[3]
  emulsion type by Oil Red O staining: O/W
[4]; [7]
  emulsion viscosity at shear rate 1S^−1, after 3 months: 376 Pas
  emulsion viscosity at shear rate 1S^−1, before aging: 465 Pas
[4]; oil/water 7/3, 2%-by-weight, shear rate 1S^−1
  viscosity decrease after 3 months: 19.1%
[5]
  CMC Range: 7-9 10^−6M
  MST (minimum surface tension): 34.5 mN/m
[6]
  emulsion layer volume-%, one month: 50%
  emulsion layer volume-%, start: 65%
  emulsion phase, one month: 90%
  emulsion layer, start: 95%
  emulsion layer percentage: 55%

## CCCCCCOC(=O)CCCCCCCC=CCCCCCCC(C)OC1OC(CO)C(O)C(O)C1OC1OC(CO)C(O)C(O)C1O (stereo not drawn) [Compound 16, SL-Hexyl Ester]
[1]
  Solubility: <5000 µg/mL
[2]; 0.5 weight %, 24 hours
  Average droplet size: 2.3 ± 0.4 μm
[2]; 0.5 weight %, aged 3-months
  Average droplet size: 2.9 ± 0.2 μm
[2]; 1 weight %, 24 hours
  Average droplet size: 2.1 ± 0.3 μm
[2]; 1 weight %, aged 3-months
  Average droplet size: 2.5 ± 0.1 μm
[2]; 2 weight %, 24 hours
  Average droplet size: 1.7 ± 0.2 μm
[2]; 2 weight %, aged 3-months
  Average droplet size: 1.9 ± 0.1 μm
[3]
  emulsion type by Oil Red O staining: O/W
[4]; [8]
  low shear emulsion viscosity, after aging period: 459 Pas
  low shear emulsion viscosity, before aging: 457 Pas
  viscosity decrease over the aging period: 20%
[5]
  CMC Range: 3-4 10^−6M
  MST (minimum surface tension): 34.0 mN/m
[6]
  emulsion layer volume-%, one month: 65%
  emulsion layer volume-%, start: 70%
  emulsion phase, one month: 85%
  emulsion layer, start: 95%
  emulsion layer percentage: 65%
